Values of other authors in US6068976A, “Modulators of ob gene and screening methods therefor” (priority 1996, dated 2000).

Conditions: in vivo; cited from earlier work

CC(COc1ccccc1)N(CCCl)Cc1ccccc1 (stereo not shown) [phenoxybenzamide]
weight gain and fat accumulation: prevents weight gain and fat accumulation
